Test results published in patent US20100074897A1, “Methods and Compositions related to HIF-1 alpha” (University of Utah Research Foundation, priority 2006, published 2010).

Key:
HIF-2α = assay: Western blot after siRNA transfection of HCT116 cells; format: cell-based, human
Experimental: (§1) Western Blot. Western blot analysis was carried out as described previously.
(§2) RNA Interference. Transfection with siRNA duplexes and siRNA sequence information were described previously (Koshiji et al. 2005). CHK1 siRNA was described previously (Zhao et al. 2002). Luciferase siRNA was used as negative control.

HIF-1α = assay: as above; format: cell-based, human
Experimental: as §1, §2

NBS1 [1] = assay: NBS1 mRNA levels by real-time PCR in HCT116 cells; format: cell-based, human; details: siRNA, hypoxia 1% O2 16 h
Experimental: HCT116 TP53^+/+, HCT116 TP53^−/− cells (Koshiji et al., 2004), and U-2 OS were grown in McCoy's 5A medium (Invitrogen), and HeLa cells in DMEM. For hypoxic treatment, cells were incubated in a hypoxic chamber (Innova CO-48, New Brunswick Scientific) maintaining 1% O2 and 5% CO2. Recombinant adenovirus generation and infection were as previously described (Koshiji et al., 2004).
Total RNA extraction, reverse transcription, and quantitative PCR were performed essentially as described previously (Koshiji et al., 2005). Taqman Gene Expression Assay kits for NBS1, MRE11A, RAD50, MSH2, and ACTB were purchased from Applied Biosystems. All experiments were repeated three times in triplicates, and representative results were presented as means±standard errors.

CDC25A = CDC25A and PGK1 mRNA by real-time RT-PCR in siRNA-transfected HCT116 cells; format: cell-based, human; details: siRNA 24 h then hypoxia 16 h
Experimental: Real-Time RT-PCR. Real-time RT-PCR was performed essentially as described previously (Koshiji et al. 2005). Primer and probe (Applied Biosystems) sequences were as follows: CDC25A, forward 5′-[…]-3′ (SEQ ID NO: 25), reverse 5′-[…]-3′ (SEQ ID NO: 26), probe 5′-FAM-[…]-MGB-3′ (SEQ ID NO: 27). PGK-1 (FAM-MGB probe) and ACTB (VIC-MGB probe) were detected with endogenous control reagents from Applied Biosystems. β-actin primers and probe were included into each reaction for normalization. All the experiments were repeated three times in triplicate, and representative results were presented in mean±standard error.
as §2

CDC25A promoter = assay: CDC25A reporter (luciferase) assay in HCT116 cells; format: cell-based, human; details: hypoxia
Experimental: Reporter Assay. Reporter assays were conducted as described previously (Huang et al. 2002). The Myc effect on the reporter was examined by cotransfection with 0.4 μg pMyc (Koshiji et al. 2004a) or as specified.

U-2 OS cells [2] = assay: immunofluorescent staining of γ-H2AX foci (DNA DSBs); format: cell-based; details: U-2 OS cells transiently expressing PAS-B variants
Experimental: To ascertain the functional relevance of NBS1 repression by hypoxia, the extent of DNA damage was assessed by immunofluorescent staining of γ-H2AX foci, a most sensitive method for quantifying DNA DSBs (Rogakou et al, 1998, 1999). […] Furthermore, results also show strikingly colocalized foci of γ-H2AX and 53BP1, the latter of which is known to interact with various DNA repair proteins including γ-H2AX in response to DSBs (Schultz et al, 2000). Thus, hypoxic cells experience DNA DSBs, presumably resulting from the NBS1 repression.
Immunofluorescence staining was performed essentially as described previously (Rogakou et al, 1999) with mouse anti-γ-H2AX antibody (Upstate) and rabbit anti-53BP1 (Novus Biologicals). Secondary antibodies were anti-mouse Alexa-546 and anti-rabbit Alexa-488 (Molecular Probes). Samples were mounted in antifade media, and were examined by fluorescent and laser-scanning confocal microscopy with a Nikon PCM 2000.

HCT116 cells = assay: Matrigel invasion; format: cell-based, human; details: retrovirally infected HCT116 cells, 24 h
Experimental: (§3) A, retrovirally infected HCT116 cells expressing EYFP, HIF-1α PAS-B, and mutant were assayed for Matrigel invasion. Images of cells on the membrane side were taken 24 h later. B, U-2 OS cells infected as above were assayed for anchorage-independent growth on soft agar. HIF-1α PAS-B expressed cells gave rise to formation of colonies 40 times more than others. HCT116 cells (known to grow on soft agar) were used as a positive control. Mock, uninfected cells.

U-2 OS cells [3] = assay: tumor formation in a xenografted mouse model; format: in vivo; details: athymic mice, subcutaneous injection of 1 million U-2 OS cells, within three weeks
Source text: Female BALB/c-nu/nu mice were subjected to bilateral, subcutaneous injections in the back with 1 million of U-2 OS cells, or those expressing EYFP, HIF-1α PAS-B, or the HIF-1α PAS-B mutant. A total of ten mice were divided into two groups with one type of cells injected on one side and another on the other side.

NBS1 [4] = assay: NBS1 protein levels by immunoblot in U-2 OS cells expressing PAS-B variants; format: cell-based; details: forced expression in U-2 OS cells
Experimental: Immunoprecipitations and Western blot was performed essentially as described previously (Huang et al., 1998; Koshiji et al., 2005). In vitro translation and immunoprecipitations are described as before (Gu et al., 2001; Koshiji et al., 2005). The wheat germ extract system was purchased from Promega. λ protein phosphatase (New England Biolabs) and resveratrol (Sigma) with indicated concentrations were added to the in vitro translated products before immunoprecipitations.
U-2 OS cells were transfected with the Nucleofector system (Amaxa). Briefly, 1×10^6 cells were suspended in 100 μl pre-warmed Nucleofector Solution Kit V containing 2 μg plasmids. After electroporation the cells were transferred immediately into pre-warmed complete McCoy's 5A medium and seeded in 6-well plates. Cells were harvested 48 h after transfection.

Sp1 = molecular target: T1, Sp1 (Oryctolagus cuniculus, UniProt G1SL61); assay: anti-Sp1 immunoprecipitation of in vitro translated products; format: binding, rabbit; details: translated in rabbit reticulocyte lysate
T1 construct: from tissue; host or cells: rabbit reticulocyte lysate (in vitro translation system)
T1 sequence (G1SL61 1-788): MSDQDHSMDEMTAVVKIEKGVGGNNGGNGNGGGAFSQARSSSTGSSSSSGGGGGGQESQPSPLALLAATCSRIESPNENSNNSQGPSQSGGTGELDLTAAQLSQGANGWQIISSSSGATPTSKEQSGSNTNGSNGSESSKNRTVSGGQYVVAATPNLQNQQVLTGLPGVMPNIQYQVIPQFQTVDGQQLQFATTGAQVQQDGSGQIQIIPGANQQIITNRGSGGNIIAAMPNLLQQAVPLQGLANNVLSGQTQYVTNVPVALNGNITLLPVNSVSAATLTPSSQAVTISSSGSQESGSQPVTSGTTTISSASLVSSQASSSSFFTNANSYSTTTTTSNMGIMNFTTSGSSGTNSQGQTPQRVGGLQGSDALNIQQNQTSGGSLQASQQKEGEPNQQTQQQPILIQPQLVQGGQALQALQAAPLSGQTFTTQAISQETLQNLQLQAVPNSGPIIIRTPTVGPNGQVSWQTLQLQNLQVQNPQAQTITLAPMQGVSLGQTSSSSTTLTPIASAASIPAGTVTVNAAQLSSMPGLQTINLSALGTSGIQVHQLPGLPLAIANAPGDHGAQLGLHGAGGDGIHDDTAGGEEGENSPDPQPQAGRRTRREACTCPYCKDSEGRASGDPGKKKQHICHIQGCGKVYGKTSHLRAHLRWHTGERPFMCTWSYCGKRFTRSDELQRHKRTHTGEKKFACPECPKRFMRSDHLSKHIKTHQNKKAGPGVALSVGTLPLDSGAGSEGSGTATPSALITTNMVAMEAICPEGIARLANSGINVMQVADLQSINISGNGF
Experimental: Previously, it was shown that Myc displacement is mediated by the N-terminal HIF-1α (1-329), which competes with Myc for Sp1 binding in the MSH2 promoter (Koshiji et al, 2005). […] […] […] Of note, removal of part of the PAS-B from the C terminus (codon 299-329) destroyed Sp1 binding.
Immunoprecipitations and Western blot was performed essentially as described previously (Huang et al., 1998; Koshiji et al., 2005). In vitro translation and immunoprecipitations are described as before (Gu et al., 2001; Koshiji et al., 2005). […]

U-2 OS cells [5] = assay: anchorage-independent growth on soft agar; format: cell-based; details: retrovirally infected U-2 OS cells
Experimental: as §3

β-catenin = assay: immunoblotting of epithelial marker in retrovirally infected U-2 OS cells; format: cell-based
Experimental: A, Cells as indicated were infected by retroviruses expressing EYFP, EYFP-PAS-B fusion, and EYFP-PAS-B mutant. […] B, U-2 OS and those infected with retroviruses as above were analyzed by immunoblotting individual protein expression as indicated.

[6] = molecular target: synthetic peptide corresponding to HIF-1α residues 299-329
[7] = molecular target: synthetic peptide including HIF-2α residues 314-331
[8] = molecular target: synthetic peptide harboring HIF-2α T324V mutation

## 5′-AACTGATGACCAGCAACTTGA-3′ [HIF1A siRNA]
HIF-2α
  HIF-2α levels: remained unaffected
HIF-1α
  decrease of HIF-1α protein levels: > 80%
NBS1 [1]
  effect on NBS1 and MSH2 downregulation and PGK1 upregulation in hypoxic cells: abrogated
CDC25A
  effect on hypoxic CDC25A down-regulation and PGK1 up-regulation: effectively blocked the CDC25A down-regulation
CDC25A promoter
  hypoxic inhibition of CDC25A reporter expression: abrogated

## PAS1B: HIF-1α PAS-B domain (codon 194-329)
U-2 OS cells [2]
  γ-H2AX foci colocalized with 53BP1: significantly increased
HCT116 cells
  invasiveness versus controls: much more invasive
U-2 OS cells [3]
  tumor nodules formation: formed tumor nodules
NBS1 [4]
  NBS1 protein levels: sufficient to eliminate NBS1 protein levels
Sp1
  Sp1 binding: sufficient for Sp1 interaction
U-2 OS cells [5]
  formation of colonies on soft agar relative to others: 40 times
β-catenin
  β-catenin protein expression: marked decrease

B1: recombinant PKD1 (Upstate Biotechnology) (protein)
chain: MSAPPVLRPPSPLLPVAAAAAAAAAALVPGSGPGPAPFLAPVAAPVGGISFHLQIGLSREPVLLLQDSSGDYSLAHVREMACSIVDQKFPECGFYGMYDKILLFRHDPTSENILQLVKAASDIQEGDLIEVVLSASATFEDFQIRPHALFVHSYRAPAFCDHCGEMLWGLVRQGLKCEGCGLNYHKRCAFKIPNNCSGVRRRRLSNVSLTGVSTIRTSSAELSTSAPDEPLLQKSPSESFIGREKRSNSQSYIGRPIHLDKILMSKVKVPHTFVIHSYTRPTVCQYCKKLLKGLFRQGLQCKDCRFNCHKRCAPKVPNNCLGEVTINGDLLSPGAESDVVMEEGSDDNDSERNSGLMDDMEEAMVQDAEMAMAECQNDSGEMQDPDPDHEDANRTISPSTSNNIPLMRVVQSVKHTKRKSSTVMKEGWMVHYTSKDTLRKRHYWRLDSKCITLFQNDTGSRYYKEIPLSEILSLEPVKTSALIPNGANPHCFEITTANVVYYVGENVVNPSSPSPNNSVLTSGVGADVARMWEIAIQHALMPVIPKGSSVGTGTNLHRDISVSISVSNCQIQENVDISTVYQIFPDEVLGSGQFGIVYGGKHRKTGRDVAIKIIDKLRFPTKQESQLRNEVAILQNLHHPGVVNLECMFETPERVFVVMEKLHGDMLEMILSSEKGRLPEHITKFLITQILVALRHLHFKNIVHCDLKPENVLLASADPFPQVKLCDFGFARIIGEKSFRRSVVGTPAYLAPEVLRNKGYNRSLDMWSVGVIIYVSLSGTFPFNEDEDIHDQIQNAAFMYPPNPWKEISHEAIDLINNLLQVKMRKRYSVDKTLSHPWLQDYQTWLDLRELECKIGERYITHESDDLRWEKYAGEQGLQYPTHLINPSASHSDTPETEETEMKALGERVSIL
[6]
  PKD1-mediated phosphorylation in an in vitro kinase assay (c.p.m.): a HIF-2α peptide, but not its HIF-1α counterpart, was robustly phosphorylated
[7]
  PKD1-mediated phosphorylation in an in vitro kinase assay (c.p.m.): a HIF-2α peptide, but not its HIF-1α counterpart, was robustly phosphorylated
[8]
  PKD1-mediated phosphorylation in an in vitro kinase assay (c.p.m.): replacement of Thr-324 with valine abolished phosphorylation
